{"source": "patent US8227459B2", "about": "“Diamino-phenothiazinyl derivatives as antiviral treatments” (priority 2007, dated 2012)", "key": {"VEEV Trinidad virus": {"system": "VEEV Trinidad virus", "type": "cell-based, Venezuelan Equine Encephalitis virus"}, "DENV": {"system": "DENV", "type": "cell-based, Dengue virus"}, "LASV": {"system": "LASV", "type": "cell-based, Lhasa virus"}, "WNV": {"system": "WNV", "type": "cell-based, West Nile virus"}, "RVFV": {"system": "RVFV", "type": "cell-based, Rift Valley Fever virus"}, "PTV": {"system": "PTV", "type": "cell-based, Punta Toro Virus"}, "EBOV [1]": {"system": "EBOV", "type": "cell-based, Ebola virus"}, "EBOV [2]": {"system": "EBOV", "design": "species or system mice", "settings": "mouse, in vivo, ip"}, "Marburg virus": {"system": "Marburg virus", "design": "species or system mice", "settings": "mouse, in vivo, ip"}, "CHK": {"system": "CHK", "type": "cell-based, chikungunya virus"}, "EEEV": {"system": "EEEV", "type": "cell-based, Easter Equine Encephalitis virus"}, "WEEV": {"system": "WEEV", "type": "cell-based, Wester Equine Encephalitis virus"}, "HCV": {"system": "HCV", "type": "cell-based, hepatitis C virus"}}, "data": [{"compound": "CN(C)c1ccc2nc3ccc(N)cc3[s+]c2c1.[Cl-]", "note": "[Azure A]", "values": [{"measurement": "EC99 VEEV", "setting": "VEEV Trinidad virus", "value": "0.1 to 1", "unit": "µM"}, {"measurement": "EC99 DENV", "setting": "DENV", "value": 1, "unit": "µM"}]}, {"compound": "CNc1ccc2nc3ccc(N)cc3[s+]c2c1.[Cl-]", "note": "[Azure C]", "values": [{"measurement": "EC99 VEEV", "setting": "VEEV Trinidad virus", "value": 0.1, "unit": "µM"}, {"measurement": "EC99 DENV", "setting": "DENV", "value": "<1", "unit": "µM"}]}, {"compound": "CN(C)c1cc(F)c2nc3c(F)cc(=[N+](C)C)cc-3sc2c1", "note": "[Compound 3]", "values": [{"measurement": "EC99 VEEV", "setting": "VEEV Trinidad virus", "value": "<1", "unit": "µM"}, {"measurement": "EC99 LASV", "setting": "LASV", "value": ">5", "unit": "µM"}, {"measurement": "EC99 WNV", "setting": "WNV", "value": 1, "unit": "µM"}, {"measurement": "EC99 RVFV", "setting": "RVFV", "value": ">5", "unit": "µM"}]}, {"compound": "CN(C)c1cc(Cl)c2nc3c(Cl)cc(=[N+](C)C)cc-3sc2c1", "note": "[Compound 4]", "values": [{"measurement": "EC99 VEEV", "setting": "VEEV Trinidad virus", "value": "<1", "unit": "µM"}, {"measurement": "EC99 LASV", "setting": "LASV", "value": "<5", "unit": "µM"}, {"measurement": "EC99 WNV", "setting": "WNV", "value": "<1", "unit": "µM"}, {"measurement": "EC99 RVFV", "setting": "RVFV", "value": 0.05, "unit": "µM"}]}, {"compound": "Cc1cc(=[N+](C)C)cc2sc3cc(N(C)C)cc(C)c3nc1-2.[Cl-]", "note": "[Dimethyl MB, dimethylmethylene blue]", "values": [{"measurement": "EC99 PTV", "setting": "PTV", "value": 5, "unit": "µM"}, {"measurement": "EC99 EBOV", "setting": "EBOV [1]", "value": "0.025 to 0.1", "unit": "µM"}, {"measurement": "prophylaxis of study group against EBOV", "setting": "EBOV [2]", "value": "complete prophylaxis"}, {"measurement": "survival, EBOV", "setting": "EBOV [2]", "value": 100, "unit": "%"}, {"measurement": "EC99 VEEV", "setting": "VEEV Trinidad virus", "value": "0.02 to 0.1", "unit": "µM"}, {"measurement": "EC99 LASV", "setting": "LASV", "value": "<1", "unit": "µM"}, {"measurement": "day by which surviving mice had recovered, Marburg", "setting": "Marburg virus", "value": "≤ 9", "unit": "days"}, {"measurement": "prophylaxis of study group against Marburg", "setting": "Marburg virus", "value": 60, "unit": "%"}, {"measurement": "EC99 CHK", "setting": "CHK", "value": "0.1 to 1", "unit": "µM"}, {"measurement": "EC99 EEEV", "setting": "EEEV", "value": "<0.1", "unit": "µM"}, {"measurement": "EC99 WNV", "setting": "WNV", "value": "0.025 to 0.1", "unit": "µM"}, {"measurement": "EC99 RVFV", "setting": "RVFV", "value": "<10", "unit": "µM"}, {"measurement": "EC99 WEEV", "setting": "WEEV", "value": 0.1, "unit": "µM"}, {"measurement": "EC99 HCV", "setting": "HCV", "value": "0.2 to 0.5", "unit": "µM"}]}, {"compound": "CN(C)c1ccc2nc3ccc(=[N+](C)C)cc-3sc2c1", "note": "[Methylene Blue (MB), Methylene Blue]", "values": [{"measurement": "EC99 EBOV", "setting": "EBOV [1]", "value": ">3.2", "unit": "µM"}, {"measurement": "EC99 VEEV", "setting": "VEEV Trinidad virus", "value": "<1", "unit": "µM"}, {"measurement": "EC99 CHK", "setting": "CHK", "value": 1, "unit": "µM"}, {"measurement": "EC99 EEEV", "setting": "EEEV", "value": 1, "unit": "µM"}, {"measurement": "EC99 WNV", "setting": "WNV", "value": "<1", "unit": "µM"}, {"measurement": "EC99 RVFV", "setting": "RVFV", "value": ">5", "unit": "µM"}, {"measurement": "EC99 WEEV", "setting": "WEEV", "value": 1, "unit": "µM"}, {"measurement": "EC99 HCV", "setting": "HCV", "value": "0.02 to 0.08", "unit": "µM"}, {"measurement": "EC99 DENV", "setting": "DENV", "value": 10, "unit": "µM"}]}, {"compound": "Cc1cc2nc3ccc(N(C)C)cc3[s+]c2cc1N.[Cl-]", "note": "[Toluidine Blue]", "values": [{"measurement": "EC99 VEEV", "setting": "VEEV Trinidad virus", "value": "<10", "unit": "µM"}, {"measurement": "EC99 DENV", "setting": "DENV", "value": 1, "unit": "µM"}]}, {"compound": "Azure B", "values": [{"measurement": "EC99 VEEV", "setting": "VEEV Trinidad virus", "value": "0.1 to 1", "unit": "µM"}, {"measurement": "EC99 DENV", "setting": "DENV", "value": 1, "unit": "µM"}]}]}
